The assay has as its system MV-4-11 cells. In words: Gene expression microarray analysis (Affymetrix PrimeView) and GSEA. Further details: RFU PODN (11730768_x_at) / Fold change /veh PODN (11730768_x_at) / RFU LINC00158 (11744669_a_at) / Fold change /veh LINC00158 (11744669_a_at) / RFU DUSP10 (11751237_a_at) / Fold change /veh DUSP10 (11751237_a_at) / RFU ID3 (11757404_x_at) / Fold change /veh ID3 (11757404_x_at) / RFU PLEKHG5 (11737974_s_at) / Fold change /veh PLEKHG5 (11737974_s_at) / RFU LRRC4B (11730491_at) / Fold change /veh LRRC4B (11730491_at) / RFU GIMAP4 (11747438_a_at) / Fold change /veh GIMAP4 (11747438_a_at) / RFU KRT8 (11758183_x_at) / Fold change /veh KRT8 (11758183_x_at) / RFU CNN1 (11734310_a_at) / Fold change /veh CNN1 (11734310_a_at) / RFU VPS37D (11726825_at) / Fold change /veh VPS37D (11726825_at) / RFU C10orf10 (11716522_x_at) / Fold change /veh C10orf10 (11716522_x_at) / RFU KIR2DL2 /// KIR2DL4 /// KIR2DL5A /// KIR2DL5B /// KIR2DS1 /// KIR2DS2 /// KIR2DS3 /// KIR2DS4 /// KIR3DL3 /// KIR3DL3 /// KIR3DS1 (11738374_at) / Fold change /veh KIR2DL2 /// KIR2DL4 /// KIR2DL5A /// KIR2DL5B /// KIR2DS1 /// KIR2DS2 /// KIR2DS3 /// KIR2DS4 /// KIR3DL3 /// KIR3DL3 /// KIR3DS1 (11738374_at) / RFU C1QL1 (11718748_at) / Fold change /veh C1QL1 (11718748_at) / RFU TMPRSS4 (11747572_a_at) / Fold change /veh TMPRSS4 (11747572_a_at) / RFU HAMP (11756126_x_at) / Fold change /veh HAMP (11756126_x_at) / RFU RNFT2 (11725882_a_at) / Fold change /veh RNFT2 (11725882_a_at) / RFU NR4A2 (11747474_a_at) / Fold change /veh NR4A2 (11747474_a_at) / RFU ABCC12 (11746883_a_at) / Fold change /veh ABCC12 (11746883_a_at) / RFU TMEM136 (11760407_x_at) / Fold change /veh TMEM136 (11760407_x_at) / RFU CLDN22 /// WWC2 (11732394_at) / Fold change /veh CLDN22 /// WWC2 (11732394_at) / RFU HLA-DPB1 (11760878_x_at) / Fold change /veh HLA-DPB1 (11760878_x_at) / RFU SPINT1 (11716480_a_at) / Fold change /veh SPINT1 (11716480_a_at) / RFU GAP43 (11754022_s_at) / Fold change /veh GAP43 (11754022_s_at) / RFU A4GNT (11735810_at) / Fold change /veh A4GNT (11735810_at) / RFU PRB3 (11715151_x_at) / Fold change /veh PRB3 (11715151_x_at) / RFU TUBB4B (11761932_at) / Fold change /veh TUBB4B (11761932_at) / RFU CAPN14 (11732068_a_at) / Fold change /veh CAPN14 (11732068_a_at) / RFU TMCC2 (11721928_a_at) / Fold change /veh TMCC2 (11721928_a_at) / RFU IRGQ (11745062_a_at) / Fold change /veh IRGQ (11745062_a_at) / RFU FAM174B (11720279_a_at) / Fold change /veh FAM174B (11720279_a_at) / RFU TMPRSS4 (11748680_a_at) / Fold change /veh TMPRSS4 (11748680_a_at) / RFU FAM212B (11763350_a_at) / Fold change /veh FAM212B (11763350_a_at) / RFU PLEKHG5 (11743358_a_at) / Fold change /veh PLEKHG5 (11743358_a_at) / RFU ZSCAN30 (11745921_a_at) / Fold change /veh ZSCAN30 (11745921_a_at) / RFU CMKLR1 (11741424_a_at) / Fold change /veh CMKLR1 (11741424_a_at) / RFU LOC101060620 /// MAPK8IP1 (11723275_at) / Fold change /veh LOC101060620 /// MAPK8IP1 (11723275_at) / RFU SPTSSB (11747773_x_at) / Fold change /veh SPTSSB (11747773_x_at) / RFU PRSS12 (11739890_at) / Fold change /veh PRSS12 (11739890_at) / RFU BIN1 (11741810_x_at) / Fold change /veh BIN1 (11741810_x_at) / RFU WNT11 (11732464_a_at) / Fold change /veh WNT11 (11732464_a_at) / RFU C10orf10 (11716521_a_at) / Fold change /veh C10orf10 (11716521_a_at) / RFU C5orf56 (11738089_at) / Fold change /veh C5orf56 (11738089_at) / RFU CYB561 (11721691_x_at) / Fold change /veh CYB561 (11721691_x_at) / RFU ANKRD19P (11752326_a_at) / Fold change /veh ANKRD19P (11752326_a_at) / RFU OR2T12 /// OR2T33 /// OR2T8 (11738714_s_at) / Fold change /veh OR2T12 /// OR2T33 /// OR2T8 (11738714_s_at) / RFU VCAN (11748164_a_at) / Fold change /veh VCAN (11748164_a_at) / RFU JSRP1 (11732532_at) / Fold change /veh JSRP1 (11732532_at) / RFU KRTAP10-11 (11738290_x_at) / Fold change /veh KRTAP10-11 (11738290_x_at) / RFU MYO3A (11730013_a_at) / Fold change /veh MYO3A (11730013_a_at) / RFU EBF3 (11725865_a_at) / Fold change /veh EBF3 (11725865_a_at) / RFU CAMK2N1 (11719241_x_at) / Fold change /veh CAMK2N1 (11719241_x_at) / RFU C5orf56 (11738088_a_at) / Fold change /veh C5orf56 (11738088_a_at) / RFU OLFML3 (11715873_a_at) / Fold change /veh OLFML3 (11715873_a_at) / RFU LOC100653217 /// NTM (11731650_a_at) / Fold change /veh LOC100653217 /// NTM (11731650_a_at) / RFU MAPK11 (11762145_a_at) / Fold change /veh MAPK11 (11762145_a_at) / RFU FIZ1 (11724087_x_at) / Fold change /veh FIZ1 (11724087_x_at) / RFU OASL (11726364_x_at) / Fold change /veh OASL (11726364_x_at) / RFU SOX15 (11748057_x_at) / Fold change /veh SOX15 (11748057_x_at) / RFU CD79A (11719716_a_at) / Fold change /veh CD79A (11719716_a_at) / RFU HIST1H1D (11736915_at) / Fold change /veh HIST1H1D (11736915_at) / RFU CASKIN2 (11723855_a_at) / Fold change /veh CASKIN2 (11723855_a_at) / RFU LOC730098 (11760151_x_at) / Fold change /veh LOC730098 (11760151_x_at) / RFU OR4N2 (11742367_at) / Fold change /veh OR4N2 (11742367_at) / RFU PRRT2 (11749266_a_at) / Fold change /veh PRRT2 (11749266_a_at) / RFU SNX32 (11753110_a_at) / Fold change /veh SNX32 (11753110_a_at) / RFU CDHR5 (11726645_a_at) / Fold change /veh CDHR5 (11726645_a_at) / RFU RCAN1 (11760418_a_at) / Fold change /veh RCAN1 (11760418_a_at) / RFU FAM167A (11723789_a_at) / Fold change /veh FAM167A (11723789_a_at) / RFU FAM26E (11764081_at) / Fold change /veh FAM26E (11764081_at) / RFU ISYNA1 (11749810_s_at) / Fold change /veh ISYNA1 (11749810_s_at) / RFU ACY1 (11761880_at) / Fold change /veh ACY1 (11761880_at) / RFU 11764098_at / Fold change /veh 11764098_at / RFU SAMD14 (11745864_x_at) / Fold change /veh SAMD14 (11745864_x_at) / RFU NPB (11741838_a_at) / Fold change /veh NPB (11741838_a_at) / RFU TMPRSS6 (11731388_a_at) / Fold change /veh TMPRSS6 (11731388_a_at) / RFU KRTAP10-2 (11738614_at) / Fold change /veh KRTAP10-2 (11738614_at) / RFU ARHGAP8 /// PRR5-ARHGAP8 (11727945_x_at) / Fold change /veh ARHGAP8 /// PRR5-ARHGAP8 (11727945_x_at) / RFU KRTAP5-7 /// NADSYN1 (11734609_at) / Fold change /veh KRTAP5-7 /// NADSYN1 (11734609_at) / RFU RASL12 (11751679_a_at) / Fold change /veh RASL12 (11751679_a_at) / RFU CDKN2B (11736163_a_at) / Fold change /veh CDKN2B (11736163_a_at) / RFU PRF1 (11729649_at) / Fold change /veh PRF1 (11729649_at) / RFU, ZNF638 /// ZNF638-IT1 / Fold change vs veh, ZNF638 /// ZNF638-IT1 / RFU, PANK3 / Fold change vs veh, PANK3 / RFU, SH3YL1 / Fold change vs veh, SH3YL1 / RFU, ZEB2 / Fold change vs veh, ZEB2 / RFU, NRIP1 / Fold change vs veh, NRIP1 / RFU, PTTG1IP / Fold change vs veh, PTTG1IP / RFU, CAPN2 / Fold change vs veh, CAPN2 / RFU, MED14 / Fold change vs veh, MED14 / RFU, SNORA58 / Fold change vs veh, SNORA58 / RFU, C1orf63 / Fold change vs veh, C1orf63 / RFU, LRRFIP1 / Fold change vs veh, LRRFIP1 / RFU, NDUFAF7 / Fold change vs veh, NDUFAF7 / RFU, SLC12A2 / Fold change vs veh, SLC12A2 / RFU, IBTK / Fold change vs veh, IBTK / RFU, ESF1 / Fold change vs veh, ESF1 / Fold change vs veh, TMEM50B / RFU, TAOK1 / Fold change vs veh, TAOK1 / RFU, ACBD3 / Fold change vs veh, ACBD3 / RFU, TMA16 / Fold change vs veh, TMA16 / RFU, RWDD3 / Fold change vs veh, RWDD3 / RFU, BCAT1 / Fold change vs veh, BCAT1 / RFU, EDEM3 / Fold change vs veh, EDEM3 / RFU, TMEM33 / Fold change vs veh, TMEM33 / RFU, WDR75 / Fold change vs veh, WDR75 / RFU, AHCTF1 / Fold change vs veh, AHCTF1 / RFU, TFRC / Fold change vs veh, TFRC / RFU, ZDHHC17 / Fold change vs veh, ZDHHC17 / RFU, NOM1 / Fold change vs veh, NOM1 / RFU, ARL8B / Fold change vs veh, ARL8B / RFU, ZBTB11 / Fold change vs veh, ZBTB11 / RFU, TAMM41 / Fold change vs veh, TAMM41 / RFU, KIAA1704 /// LOC100996395 / Fold change vs veh, KIAA1704 /// LOC100996395 / RFU, ING1 / Fold change vs veh, ING1 / RFU, TRMT61B / Fold change vs veh, TRMT61B / RFU, FUBP3 / Fold change vs veh, FUBP3 / RFU, TP53 / Fold change vs veh, TP53 / RFU, TNKS2 / Fold change vs veh, TNKS2 / RFU, ZFP14 / Fold change vs veh, ZFP14 / RFU, ACTR2 / Fold change vs veh, ACTR2 / RFU, PPP3R1 / Fold change vs veh, PPP3R1 / RFU, PIK3R1 / Fold change vs veh, PIK3R1 / RFU, HNRNPA1 / Fold change vs veh, HNRNPA1 / RFU, RNF170 / Fold change vs veh, RNF170 / RFU, ZNF28 / Fold change vs veh, ZNF28 / RFU, RNGTT / Fold change vs veh, RNGTT / RFU, OGT / Fold change vs veh, OGT / RFU, BRD1 / Fold change vs veh, BRD1 / RFU, MARS / Fold change vs veh, MARS / RFU, ZNF655 / Fold change vs veh, ZNF655 / RFU, FAHD1 / Fold change vs veh, FAHD1 / RFU, BDP1 / Fold change vs veh, BDP1 / RFU, LRRCC1 / Fold change vs veh, LRRCC1 / RFU, ARID1A / Fold change vs veh, ARID1A / RFU, ZNF146 / Fold change vs veh, ZNF146 / RFU, ZNF330 / Fold change vs veh, ZNF330 / RFU, GPN3 / Fold change vs veh, GPN3 / RFU, C9orf123 / Fold change vs veh, C9orf123 / RFU, N4BP2L2 / Fold change vs veh, N4BP2L2 / RFU, ARFIP1 / Fold change vs veh, ARFIP1 / RFU, FAM179B / Fold change vs veh, FAM179B / RFU, BCL10 / Fold change vs veh, BCL10 / RFU, UHRF1BP1L / Fold change vs veh, UHRF1BP1L / RFU, BET1 / Fold change vs veh, BET1 / RFU, CNOT2 / Fold change vs veh, CNOT2 / RFU, ZNF268 / Fold change vs veh, ZNF268 / Fold change vs veh, ZNF507 / RFU, DGCR2 / Fold change vs veh, DGCR2 / RFU, WDSUB1 / Fold change vs veh, WDSUB1 / Fold change vs veh, HSP90B1 /// MIR3652 / RFU, ADSS / Fold change vs veh, ADSS / RFU, GK / Fold change vs veh, GK / RFU, ZNF148 / Fold change vs veh, ZNF148 / RFU, TAF9 / Fold change vs veh, TAF9 / RFU, SLC1A5 / Fold change vs veh, SLC1A5 / RFU, SLMO2 / Fold change vs veh, SLMO2 / RFU, ABCC4 / Fold change vs veh, ABCC4 / RFU, LOC101060439 /// RAP1B / Fold change vs veh, LOC101060439 /// RAP1B / RFU, RFX7 / Fold change vs veh, RFX7 / RFU, GTPBP10 / Fold change vs veh, GTPBP10 / RFU, CNEP1R1 / Fold change vs veh, CNEP1R1 / RFU, BIVM-ERCC5 /// ERCC5 / Fold change vs veh, BIVM-ERCC5 /// ERCC5 / RFU, ILF3 / Fold change vs veh, ILF3 / RFU 11762660_at / Fold change /veh 11762660_at / RFU VCAN (11757783_s_at) / Fold change /veh VCAN (11757783_s_at) / RFU DDX43 (11728927_at) / Fold change /veh DDX43 (11728927_at) / RFU KRT8 (11758188_x_at) / Fold change /veh KRT8 (11758188_x_at) / RFU NKD1 (11759106_at) / Fold change /veh NKD1 (11759106_at) / RFU SRD5A1 (11742802_a_at) / Fold change /veh SRD5A1 (11742802_a_at) / RFU TPSAB1 /// TPSB2 (11721975_s_at) / Fold change /veh TPSAB1 /// TPSB2 (11721975_s_at) / RFU GSTM3 (11746129_a_at) / Fold change /veh GSTM3 (11746129_a_at) / RFU IL23R (11737362_x_at) / Fold change /veh IL23R (11737362_x_at) / RFU TMEM51 (11727254_a_at) / Fold change /veh TMEM51 (11727254_a_at) / RFU PIWIL2 (11732686_x_at) / Fold change /veh PIWIL2 (11732686_x_at) / RFU ORM1 (11744905_x_at) / Fold change /veh ORM1 (11744905_x_at) / RFU CCDC152 (11743942_at) / Fold change /veh CCDC152 (11743942_at) / RFU ECM1 (11717891_a_at) / Fold change /veh ECM1 (11717891_a_at) / RFU IL23R (11748794_a_at) / Fold change /veh IL23R (11748794_a_at) / RFU TNFAIP8L3 (11732012_x_at) / Fold change /veh TNFAIP8L3 (11732012_x_at) / RFU MBOAT4 (11741988_at) / Fold change /veh MBOAT4 (11741988_at) / RFU 11764193_at / Fold change /veh 11764193_at / RFU TMEM53 (11763286_at) / Fold change /veh TMEM53 (11763286_at) / RFU MAGEB2 (11727129_at) / Fold change /veh MAGEB2 (11727129_at) / RFU TMEM200A (11744735_a_at) / Fold change /veh TMEM200A (11744735_a_at) / RFU CCDC152 (11751479_a_at) / Fold change /veh CCDC152 (11751479_a_at) / RFU FAM211A (11726209_a_at) / Fold change /veh FAM211A (11726209_a_at) / RFU RGS16 (11746705_a_at) / Fold change /veh RGS16 (11746705_a_at) / RFU VCAN (11755009_s_at) / Fold change /veh VCAN (11755009_s_at) / RFU RHOB (11743442_s_at) / Fold change /veh RHOB (11743442_s_at) / RFU RGS16 (11720943_a_at) / Fold change /veh RGS16 (11720943_a_at) / RFU RGS16 (11720944_at) / Fold change /veh RGS16 (11720944_at) / RFU, VPS4B / Fold change vs veh, VPS4B / RFU, CREB1 / Fold change vs veh, CREB1 / RFU, DNAJC13 / Fold change vs veh, DNAJC13 / RFU, GNAQ / Fold change vs veh, GNAQ / RFU, CDK5R1 / Fold change vs veh, CDK5R1 / RFU, ZRANB3 / Fold change vs veh, ZRANB3 / RFU, CUL4A / Fold change vs veh, CUL4A / RFU, CCNY / Fold change vs veh, CCNY / RFU, UFL1 / Fold change vs veh, UFL1 / RFU, COG3 / Fold change vs veh, COG3 / RFU, DIAPH2 / Fold change vs veh, DIAPH2 / RFU, SKA2 / Fold change vs veh, SKA2 / RFU, AFF3 / Fold change vs veh, AFF3 / RFU, LMF1 / Fold change vs veh, LMF1 / RFU, IPO11 / Fold change vs veh, IPO11 / RFU, DFFB / Fold change vs veh, DFFB / RFU, FOXP1 / Fold change vs veh, FOXP1 / RFU, CARD8 / Fold change vs veh, CARD8 / RFU, STRN3 / Fold change vs veh, STRN3 / RFU, ADK / Fold change vs veh, ADK / RFU, RASSF2 / Fold change vs veh, RASSF2 / RFU, WIPF1 / Fold change vs veh, WIPF1 / RFU, LARP1B / Fold change vs veh, LARP1B / RFU, RASA1 / Fold change vs veh, RASA1 / RFU, RB1 / Fold change vs veh, RB1 / RFU, PPFIA1 / Fold change vs veh, PPFIA1 / RFU, MAT2A / Fold change vs veh, MAT2A / RFU, CCT5 / Fold change vs veh, CCT5 / RFU, WDR92 / Fold change vs veh, WDR92 / RFU, CUX1 / Fold change vs veh, CUX1 / RFU, TTC7A / Fold change vs veh, TTC7A / RFU, TMEM135 / Fold change vs veh, TMEM135 / RFU, DEPTOR / Fold change vs veh, DEPTOR / RFU, CPM / Fold change vs veh, CPM / RFU, DNAJB6 / Fold change vs veh, DNAJB6 / RFU, CACNA2D3 / Fold change vs veh, CACNA2D3 / RFU, DTX4 / Fold change vs veh, DTX4 / RFU, TFCP2 / Fold change vs veh, TFCP2 / RFU, GMCL1 /// GMCL1P1 / Fold change vs veh, GMCL1 /// GMCL1P1 / RFU, AEBP2 / Fold change vs veh, AEBP2 / RFU, SNHG1 /// SNORD22 /// SNORD25 /// SNORD26 /// SNORD27 /// SNORD28 /// SNORD29 /// SNORD31 / Fold change vs veh, SNHG1 /// SNORD22 /// SNORD25 /// SNORD26 /// SNORD27 /// SNORD28 /// SNORD29 /// SNORD31 / Fold change (Aza/veh), C12orf56 (ProbeSet 11735607_a_at) / Fold change (ACY-1035/veh), C12orf56 (ProbeSet 11735607_a_at) / Fold change (Aza/veh), FGFR1OP (ProbeSet 11751329_s_at) / Fold change (ACY-1035/veh), FGFR1OP (ProbeSet 11751329_s_at) / Fold change (Aza/veh), VPS36 (ProbeSet 11739960_a_at) / Fold change (ACY-1035/veh), VPS36 (ProbeSet 11739960_a_at) / RFU SYPL1 (11715823_x_at) / Fold change /veh SYPL1 (11715823_x_at) / RFU IGFBP7 (11715501_s_at) / Fold change /veh IGFBP7 (11715501_s_at) / RFU REEP3 (11722064_at) / Fold change /veh REEP3 (11722064_at) / RFU IGLL1 (11728026_x_at) / Fold change /veh IGLL1 (11728026_x_at): dose or concentration left out as unconfirmed. As to conditions: ProbeSet 11728676_at; LIST B. It counts as cell-based, human.

For `Nc1ccc(-c2cccs2)cc1NC(=O)c1ccc2c(c1)cc(C1CC1)n2CCN1CCOCC1` [ACY-1035], the “RFU, MED14” value was 202.11 RFU.

These data come from PMC5218480 (PLoS ONE, 2017).
